# Where two headings read alike, the source gives them in different places. Where a SMILES comes first, the peptide text is derived from it. Bridges are numbered along the chain shown (N, C = ends). [ ]: non-standard residue; d: D form. The star is where a group is joined. X1 = NC[C@@H](CC(=O)*)c1cccc(Cl)c1; X2 = CC[C@H](C)CCCCC(=O)*; Dab = NCC[C@H](N)C(=O)O; Dap = NC[C@H](N)C(=O)O
# How the values were obtained:
# [1] = system: T1, Pseudomonas aeruginosa ATCC BAA 3107; assay: microbe, parasite or virus in culture; design: CLSI broth microdilution MIC; OD600 < 0.05 counted as complete growth inhibition; details: Pseudomonas aeruginosa, BAA3107, 18 h; read-out: MIC of ancestor
# T1 construct: ATCC BAA-3107
# Description: (§1) A final concentration of 5 × 10^5 bacterial cells per mL were inoculated into each well containing 60 µL MHB medium. Bacterial cultures were incubated at 37 °C with continuous shaking (Infors shaker, 900 rpm with 3 mm throw) for 18 hours (2 replicates from each). Cell growth was monitored by measuring the optical density (OD600 values, using Biotek Synergy microplate reader). MIC was defined as the antibiotic concentration of complete growth inhibition (i.e., OD600 < 0.05). Relative MIC was calculated as follows:1 relativeMIC=MICevolved/MICancestor This study focused on multiple bacterial strains, as follows. For the FoR and ALE experiments, 2 strains per species were chosen: E. coli ATCC 25922, K. pneumoniae ATCC 10031, A. baumannii ATCC 17978, and P. aeruginosa ATCC BAA-3107 as sensitive (SEN) strains, and E. coli NCTC13846, K. pneumoniae ATCC 700603, A. baumannii ATCC BAA-1605 and P. aeruginosa LESB58 as multi-drug resistant (MDR) strains. Functional metagenomic screens were performed with E. coli ATCC 25922 and K. pneumoniae ATCC 10031 strains. To determine the dose-kill properties of the different antibiotics, an E. coli strain (ATCC 25922) expressing a yellow fluorescent protein (pZS2R, YFP, CHL^R) and a red fluorescent protein (pZS2R, mCherry, CHL^R) was used.
# [2] = system: T2, P. aeruginosa ATCC BAA-3107; assay: microbe, parasite or virus in culture; design: Serial broth microdilution MIC (CLSI), OD600 below 0.05, 384-well plates, MHB medium; details: Pseudomonas aeruginosa, ATCCBAA3107, 18 h; ancestor strain before evolution
# T2 construct: ATCC BAA-3107
# Description: as §1
# [3] = system: polymyxin B-resistant lines of K. pneumoniae (KP-SEN); assay: Cross-resistance of polymyxin B resistant evolved lines, relative MIC; type: cell-based, Klebsiella pneumoniae
# Excerpt: (§2) To further investigate potential overlaps in resistance mechanisms, we examined the extent of cross-resistance between polymyxin B and other antibiotics that target the bacterial membrane.
# (§3) Fig. 7 Cross-resistance of polymyxin B resistant lines to ST and DT permeabilizer antibiotics. […] 3 independently evolved lines from each investigated species were studied, including E. coli (EC), K. pneumoniae (KP), A. baumannii (AB), and P. aeruginosa (PA). Gray color of the main heatmap indicates combinations not tested due to intrinsic resistance of ancestor strain. The additional heatmap to the right depicts genes mutated in each polymyxin B-adapted line and their involvement in specific cellular processes based on KEGG (Kyoto Encyclopedia of Genes and Genomes) and COG (Clusters of Orthologous Genes) databases. The distances between antibiotics were computed using the Euclidean distance method based on the log-transformed MIC values. The clustering was performed using the complete linkage method. […] For detailed information on antibiotic and bacterial strain abbreviations, see Supplementary Data 1. Source data are provided as a Source Data file.
# (§4) A robotic liquid handling system was used to automatically prepare a 11 to 16-step serial dilution in 384-well microtiter plates (Greiner). A final concentration of 5 × 10^5 bacterial cells per mL were inoculated into each well containing 60 µL MHB medium. Bacterial cultures were incubated at 37 °C with continuous shaking (Infors shaker, 900 rpm with 3 mm throw) for 18 hours (2 replicates from each). Cell growth was monitored by measuring the optical density (OD600 values, using Biotek Synergy microplate reader). MIC was defined as the antibiotic concentration of complete growth inhibition (i.e., OD600 < 0.05). Relative MIC was calculated as follows:1 relativeMIC=MICevolved/MICancestor […]
# (§5) Supplementary Figure 6. Susceptibility of Polymyxin B resistant lines to other ST and DT […]
# (§6) dividing the MIC of the evolved line by that of the corresponding ancestor) of 12 polymyxin B resistant lines to ST and DT permeabilizer antibiotics used in this study. Each data point represents a distinct adaptive laboratory evolved polymyxin B resistant line. Boxplots show the median, first and third quartiles, with whiskers showing the 5th and 95th percentiles. P values were calculated using Dunn's post-hoc test with Benjamini-Hochberg correction (NS indicates p > 0.05, ** / **** indicates p < 0.01 / 0.0001, respectively). The resistance level of polymyxin B resistant lines to polymyxin B (PMB), […]
# (§7) For detailed information on antibiotic and bacterial strain abbreviations, see Supplementary Table 1. Source data are provided as a Source […]
# (§8) (1 picture or pasted object on this page, not shown here)
# [4] = system: polymyxin B-resistant lines of P. aeruginosa (PA-SEN); assay: as above; type: cell-based, Pseudomonas aeruginosa
# Excerpt: as §2, §3, §4, §5, §6, §7, §8
# [5] = system: E. coli ATCC 25922 (SEN) and E. coli NCTC13846 (MDR); design: method as in PMID 39805953; details: cited from earlier work
# [6] = system: K. pneumoniae ATCC 10031 (SEN) and K. pneumoniae ATCC 700603 (MDR); design: method as in PMID 39805953; details: K. pneumoniae sensitive strain; cited from earlier work
# [7] = system: P. aeruginosa ATCC BAA-3107 (SEN) and P. aeruginosa LESB58 (MDR); details: cited from earlier work
# Excerpt: page 10: Mobile resistance genes against DT permeabilizer were rare in human-associated microbiomes and clinically relevant pathogens, while they were abundant against ST permeabilizers.
# [8] = system: A. baumannii ATCC 17978 (SEN) and A. baumannii ATCC BAA-1605 (MDR); details: after 60 days of evolution; cited from earlier work
# Excerpt: (§9) Using the same set of bacterial strains, we initiated adaptive laboratory evolution with the aim to maximize the level of antibiotic resistance in the populations achieved during a longer, but fixed time period. As expected, resistance levels were generally much higher than those observed in FoR assay. […] For instance, after 60 days of evolution, resistance levels increased by a maximum of fourfold in A. baumannii and in the E. coli sensitive strain e ...
# [9] = system: E. coli ATCC 25922 (SEN) and E. coli NCTC13846 (MDR); details: E. coli sensitive strain, after 60 days of evolution; cited from earlier work
# Excerpt: as §9
# [10] = KP-SEN, polymyxin B-resistant evolved line 1, MIC evolved/MIC ancestor
# [11] = KP-SEN, polymyxin B-resistant evolved line 3, MIC evolved/MIC ancestor
# [12] = KP-SEN, polymyxin B-resistant evolved line 7, MIC evolved/MIC ancestor
# [13] = polymyxin B-resistant evolved line 1 of KP-SEN, MIC relative to ancestor
# [14] = polymyxin B-resistant evolved line 3 of KP-SEN, MIC relative to ancestor
# [15] = polymyxin B-resistant evolved line 7 of KP-SEN, MIC relative to ancestor
# [16] = PA-SEN, polymyxin B-resistant evolved line 1, MIC evolved/MIC ancestor
# [17] = PA-SEN, polymyxin B-resistant evolved line 5, MIC evolved/MIC ancestor
# [18] = PA-SEN, polymyxin B-resistant evolved line 7, MIC evolved/MIC ancestor
# [19] = polymyxin B-resistant evolved line 1 of PA-SEN, MIC relative to ancestor
# [20] = polymyxin B-resistant evolved line 5 of PA-SEN, MIC relative to ancestor
# [21] = polymyxin B-resistant evolved line 7 of PA-SEN, MIC relative to ancestor
compound,measurement,setting,value
Nc1nc(-n2cc(C(=O)O)c(=O)c3cc(F)c(N4CC(O)C4)c(Cl)c32)c(F)cc1F [Delafloxacin],MIC,[1],0.0156 µg/mL
same,MIC,[2],0.0156 µg/mL
CC[C@H](C)CCCCC(=O)N[C@@H](CCN)C(=O)N[C@H](C(=O)N[C@@H](CCN)C(=O)N[C@H]1CCNC(=O)[C@H]([C@@H](C)O)NC(=O)[C@H](CCN)NC(=O)[C@H](CCN)NC(=O)[C@H](CC(C)C)NC(=O)[C@@H](Cc2ccccc2)NC(=O)[C@H](CCN)NC1=O)[C@@H](C)O [Polymyxin B] (X2-[Dab]T[Dab][Dab][Dab][dF]L[Dab][Dab]T; lactam 4-C (inferred); N-terminus assumed),Relative MIC,[3]; [10],32
same,Relative MIC,[3]; [11],64
same,Relative MIC,[3]; [12],64
same,Relative MIC,[3]; [13],32
same,Relative MIC,[3]; [14],64
same,Relative MIC,[3]; [15],64
same,Relative MIC,[4]; [16],32
same,Relative MIC,[4]; [17],32
same,Relative MIC,[4]; [18],8
same,Relative MIC,[4]; [19],32
same,Relative MIC,[4]; [20],32
same,Relative MIC,[4]; [21],8
same,resistance level (relative MIC) after FoR assay,[5]; multidrug-resistant E. coli strain,no resistant mutants emerged
same,resistance level (relative MIC) after FoR assay,[6],no resistant mutants emerged
same,increase in resistance level after adaptive laboratory evolution,[7],32 fold
CC(C)c1ccc(Cn2ccc3c4c(N)nc(NC5CC5)nc4ccc32)cc1 [SCH79797],Relative MIC,[3]; [10],1
same,Relative MIC,[3]; [11],1
same,Relative MIC,[3]; [12],1
same,Relative MIC,[3]; [13],1
same,Relative MIC,[3]; [14],1
same,Relative MIC,[3]; [15],1
same,increase in resistance level after adaptive laboratory evolution,[8],fourfold
same,increase in resistance level after adaptive laboratory evolution,[9],fourfold
CC(C)C[C@@H]1NC(=O)[C@@H](Cc2ccccc2)NC(=O)[C@H](CCN)NC(=O)[C@@H](NC(=O)[C@H](CN)NC(=O)[C@@H](NC(=O)C[C@H](CN)c2cccc(Cl)c2)[C@@H](C)O)CCNC(=O)[C@H]([C@@H](C)O)NC(=O)[C@H](CCN)NC(=O)[C@H](CCN)NC1=O [SPR206] (X1-T[Dap][Dab][Dab][dF]L[Dab][Dab]T; lactam 3-C (inferred); N-terminus assumed),Relative MIC,[3]; [10],32
same,Relative MIC,[3]; [11],128
same,Relative MIC,[3]; [12],128
same,Relative MIC,[3]; [13],32
same,Relative MIC,[3]; [14],128
same,Relative MIC,[3]; [15],128
same,Relative MIC,[4]; [16],64
same,Relative MIC,[4]; [17],64
same,Relative MIC,[4]; [18],32
same,Relative MIC,[4]; [19],64
same,Relative MIC,[4]; [20],64
same,Relative MIC,[4]; [21],32
same,resistance level (relative MIC) after FoR assay,[5]; E. coli sensitive strain,more than 128 fold
same,resistance level (relative MIC) after FoR assay,[6],more than 128 fold
same,increase in resistance level after adaptive laboratory evolution,[7],32 fold
POL7306,Relative MIC,[3]; [10],1
same,Relative MIC,[3]; [11],32
same,Relative MIC,[3]; [12],32
same,Relative MIC,[3]; [13],1
same,Relative MIC,[3]; [14],32
same,Relative MIC,[3]; [15],32
same,Relative MIC,[4]; [16],1
same,Relative MIC,[4]; [17],1
same,Relative MIC,[4]; [18],4
same,Relative MIC,[4]; [19],1
same,Relative MIC,[4]; [20],1
same,Relative MIC,[4]; [21],4
colistin,Relative MIC,[3]; [10],32
same,Relative MIC,[3]; [11],64
same,Relative MIC,[3]; [12],32
same,Relative MIC,[3]; [13],32
same,Relative MIC,[3]; [14],64
same,Relative MIC,[3]; [15],32
same,Relative MIC,[4]; [16],32
same,Relative MIC,[4]; [17],32
same,Relative MIC,[4]; [18],16
same,Relative MIC,[4]; [19],32
same,Relative MIC,[4]; [20],32
same,Relative MIC,[4]; [21],16
